Test results as given in patent publication US4123612A, “7-(5-Am ino-5-carboxyvaleramido)-3-(carbamoyoloxymethyl)-3-cephem-4-carboxylic acid” (Eli Lilly and Company, priority 1974, dated 1978).

Legend:
physchem = conditions: 66% dimethylformamide-water
Salmonella typhosa SA 12 = assay: Bauer-Kirby disc diffusion, zone of inhibition; conditions: Salmonella enterica
Source text: (§1) The evaluation was made on the monoammonium salts of separated factors I and II.

Escherichia coli EC 25 = assay: Bauer-Kirby disc diffusion, zone of inhibition; type: cell-based
[1] = tested on: Ascaris lumbricoides var. suum; assay: anthelmintic evaluation in mice by treated feed, separate factors (Example 13); type: in vivo; conditions: 0.05 percent in diet, control 2.66
Source text: The feeds were utilized as diets for separate groups of mice, five mice per group. About twelve hours after initiation of the feeding, the mice were infected with Ascaris lumbricoides var. suum ova. Another group of five mice was fed the non-medicated feed to serve as a control but was similarly infected at the same time with Ascaris lumbricoides var. suum. All groups were fed their respective feed and maintained under normal laboratory conditions for a period of eight days, at which time all mice were taken off feed. On the ninth day, all mice were sacrificed and the lungs examined to determine the presence, and if present, numbers, of lesions of Ascaris lumbricoides var. suum.
In a further evaluation, the monoammonium salts of A16886I and A16886II were separately evaluated for the control of Ascaris lumbricoides var. suum. The evaluations were conducted in accordance with the procedure reported in Example 11 at a concentration in the diet of 0.05 percent.

[2] = tested on: Staphylococcus aureus 3074; assay: Bauer-Kirby disc diffusion, zone of inhibition; type: cell-based
Salmonella typhosa SA 16 = assay: Bauer-Kirby disc diffusion, zone of inhibition; conditions: Salmonella enterica
Source text: as §1

Proteus sp. PR7 = assay: Bauer-Kirby disc diffusion, zone of inhibition; type: cell-based
Pseudomonas sp. Ps 24 = assay: Bauer-Kirby disc diffusion, zone of inhibition; type: cell-based
solubility = type: physicochemical
[3] = tested on: Klebsiella-Aerobacter KA 14; assay: Bauer-Kirby disc diffusion, zone of inhibition; type: cell-based
Pseudomonas solanacearum = type: in vivo; conditions: 100 ppm.; 0 = no control, 4 = complete control; heavy infestation in controls
Proteus sp. PR6 = assay: Bauer-Kirby disc diffusion, zone of inhibition; type: cell-based
Pseudomonas sp. Ps 30 = assay: Bauer-Kirby disc diffusion, zone of inhibition; type: cell-based
Escherichia coli 0127 = assay: Bauer-Kirby disc diffusion, zone of inhibition; type: cell-based
[4] = tested on: Staphylococcus aureus 3055; assay: Bauer-Kirby disc diffusion, zone of inhibition; type: cell-based
[5] = tested on: Klebsiella-Aerobacter KA 25; assay: Bauer-Kirby disc diffusion, zone of inhibition; type: cell-based

COC1(NC(=O)CCCC(N)C(=O)O)C(=O)N2C(C(=O)O)=C(COC(N)=O)CS[C@@H]21 (stereo partly drawn) [A16886I, 7-(5-amino-5-carboxyvaleramido)-3-(carbamoyloxymethyl)-7-methoxy-3-cephem-4-carboxylic acid]
pKa (physchem; pH 6.5, pK'a1): 4.1 | pKa (physchem; pH 6.5, pK'a2): 5.2 | pKa (physchem; pH 6.5, pK'a3): 9.3 | pKa (physchem; pH 6.5, pK'a4): 10.5 | zone of inhibition at 0.5 µg/disc (Salmonella typhosa SA 12): 8 mm | zone of inhibition at 1 µg/disc (Salmonella typhosa SA 12): 11.3 mm | zone of inhibition at 2.5 µg/disc (Salmonella typhosa SA 12): 16.9 mm | zone of inhibition at 5 µg/disc (Salmonella typhosa SA 12): 19.9 mm | zone of inhibition at 10 µg/disc (Salmonella typhosa SA 12): 22.8 mm | zone of inhibition at 30 µg/disc (Salmonella typhosa SA 12): 27.2 mm | zone of inhibition at 0.5 µg/disc (Escherichia coli EC 25; EC25, 0.5 μg./disc): 0 mm | zone of inhibition at 1 µg/disc (Escherichia coli EC 25; EC25, 1.0 μg./disc): 0 mm | zone of inhibition at 2.5 µg/disc (Escherichia coli EC 25; EC25, 2.5 μg./disc): 9.1 mm | zone of inhibition at 5 µg/disc (Escherichia coli EC 25; EC25, 5 μg./disc): 12.5 mm | zone of inhibition at 10 µg/disc (Escherichia coli EC 25; EC25, 10 μg./disc): 15.1 mm | zone of inhibition at 30 µg/disc (Escherichia coli EC 25; EC25, 30 μg./disc): 19.6 mm | Average Number of Lung Lesions Per Group [1]: 0.46 | zone of inhibition at 0.5 µg/disc ([2]; 0.5 μg./disc): 0 mm | zone of inhibition at 1 µg/disc ([2]; 1.0 μg./disc): 0 mm | zone of inhibition at 2.5 µg/disc ([2]; 2.5 μg./disc): 0 mm | zone of inhibition at 5 µg/disc ([2]; 5 μg./disc): 0 mm | zone of inhibition at 10 µg/disc ([2]; 10 μg./disc): 0 mm | zone of inhibition at 30 µg/disc ([2]; 30 μg./disc): 0 mm | zone of inhibition at 0.5 µg/disc (Salmonella typhosa SA 16): 0 mm | zone of inhibition at 1 µg/disc (Salmonella typhosa SA 16): 9.3 mm | zone of inhibition at 2.5 µg/disc (Salmonella typhosa SA 16): 13.1 mm | zone of inhibition at 5 µg/disc (Salmonella typhosa SA 16): 16.2 mm | zone of inhibition at 10 µg/disc (Salmonella typhosa SA 16): 19.6 mm | zone of inhibition at 30 µg/disc (Salmonella typhosa SA 16): 24.2 mm | zone of inhibition at 0.5 µg/disc (Proteus sp. PR7; 0.5 μg./disc): 0 mm | zone of inhibition at 1 µg/disc (Proteus sp. PR7; 1.0 μg./disc): 0 mm | zone of inhibition at 2.5 µg/disc (Proteus sp. PR7; 2.5 μg./disc): 0 mm | zone of inhibition at 5 µg/disc (Proteus sp. PR7; 5 μg./disc): 0 mm | zone of inhibition at 10 µg/disc (Proteus sp. PR7; 10 μg./disc): 10.4 mm | zone of inhibition at 30 µg/disc (Proteus sp. PR7; 30 μg./disc): 14 mm | zone of inhibition at 0.5 µg/disc (Pseudomonas sp. Ps 24; SP.PS24, 0.5 μg./disc): 0 mm | zone of inhibition at 1 µg/disc (Pseudomonas sp. Ps 24; SP.PS24, 1.0 μg./disc): 10.1 mm | zone of inhibition at 2.5 µg/disc (Pseudomonas sp. Ps 24; SP.PS24, 2.5 μg./disc, * = satellite colonies within zone (Factor II)): 13.2 mm | zone of inhibition at 5 µg/disc (Pseudomonas sp. Ps 24; SP.PS24, 5 μg./disc, * = satellite colonies within zone (Factor II)): 15.7 mm | zone of inhibition at 10 µg/disc (Pseudomonas sp. Ps 24; SP.PS24, 10 μg./disc): 18.2 mm | zone of inhibition at 30 µg/disc (Pseudomonas sp. Ps 24; SP.PS24, 30 μg./disc): 23 mm | solubility in acetonitrile and other organic solvents (solubility; acetonitrile and other organic solvents): essentially insoluble | solubility in lower alkanols (solubility; lower alkanols): slightly soluble | solubility in water (solubility; water): very soluble | zone of inhibition at 0.5 µg/disc ([3]; 0.5 μg./disc): 0 mm | zone of inhibition at 1 µg/disc ([3]; 1.0 μg./disc): 7.6 mm | zone of inhibition at 2.5 µg/disc ([3]; 2.5 μg./disc): 11.4 mm | zone of inhibition at 5 µg/disc ([3]; 5 μg./disc): 15.4 mm | zone of inhibition at 10 µg/disc ([3]; 10 μg./disc): 18.8 mm | zone of inhibition at 30 µg/disc ([3]; 30 μg./disc): 23 mm | Disease Rating (Pseudomonas solanacearum): 4 | zone of inhibition at 0.5 µg/disc (Proteus sp. PR6; 0.5 μg./disc): 0 mm | zone of inhibition at 1 µg/disc (Proteus sp. PR6; 1.0 μg./disc): 9.9 mm | zone of inhibition at 2.5 µg/disc (Proteus sp. PR6; 2.5 μg./disc): 13.6 mm | zone of inhibition at 5 µg/disc (Proteus sp. PR6; 5 μg./disc): 16.7 mm | zone of inhibition at 10 µg/disc (Proteus sp. PR6; 10 μg./disc): 19 mm | zone of inhibition at 30 µg/disc (Proteus sp. PR6; 30 μg./disc): 23.2 mm | zone of inhibition at 0.5 µg/disc (Pseudomonas sp. Ps 30; SP.PS30, 0.5 μg./disc): 0 mm | zone of inhibition at 1 µg/disc (Pseudomonas sp. Ps 30; SP.PS30, 1.0 μg./disc): 0 mm | zone of inhibition at 2.5 µg/disc (Pseudomonas sp. Ps 30; SP.PS30, 2.5 μg./disc): 0 mm | zone of inhibition at 5 µg/disc (Pseudomonas sp. Ps 30; SP.PS30, 5 μg./disc): 0 mm | zone of inhibition at 10 µg/disc (Pseudomonas sp. Ps 30; SP.PS30, 10 μg./disc): 0 mm | zone of inhibition at 30 µg/disc (Pseudomonas sp. Ps 30; SP.PS30, 30 μg./disc): 0 mm | zone of inhibition at 0.5 µg/disc (Escherichia coli 0127; 0.5 μg./disc): 8.4 mm | zone of inhibition at 1 µg/disc (Escherichia coli 0127; 1.0 μg./disc): 12.7 mm | zone of inhibition at 2.5 µg/disc (Escherichia coli 0127; 2.5 μg./disc): 15.9 mm | zone of inhibition at 5 µg/disc (Escherichia coli 0127; 5 μg./disc): 18.6 mm | zone of inhibition at 10 µg/disc (Escherichia coli 0127; 10 μg./disc): 20.7 mm | zone of inhibition at 30 µg/disc (Escherichia coli 0127; 30 μg./disc): 25.6 mm | zone of inhibition at 0.5 µg/disc ([4]; 0.5 μg./disc): 0 mm | zone of inhibition at 1 µg/disc ([4]; 1.0 μg./disc): 0 mm | zone of inhibition at 2.5 µg/disc ([4]; 2.5 μg./disc): 0 mm | zone of inhibition at 5 µg/disc ([4]; 5 μg./disc): 0 mm | zone of inhibition at 10 µg/disc ([4]; 10 μg./disc): 0 mm | zone of inhibition at 30 µg/disc ([4]; 30 μg./disc): 0 mm | zone of inhibition at 0.5 µg/disc ([5]; 0.5 μg./disc): 0 mm | zone of inhibition at 1 µg/disc ([5]; 1.0 μg./disc): 0 mm | zone of inhibition at 2.5 µg/disc ([5]; 2.5 μg./disc): 9 mm | zone of inhibition at 5 µg/disc ([5]; 5 μg./disc): 12.3 mm | zone of inhibition at 10 µg/disc ([5]; 10 μg./disc): 15.8 mm | zone of inhibition at 30 µg/disc ([5]; 30 μg./disc): 22.1 mm
